According to patent publication US8658791B2, “2-substituted-6-amino-5-alkyl, alkenyl or alkynyl-4-pyrimidinecarboxylic acids and 6-substituted-4-amino-3-alkyl, alkenyl or alkynyl picolinic acids and their use as herbicides” (Dow AgroSciences, LLC, priority 2007, dated 2014):

Columns and labels:
Assay type in all cases: in vivo
[1] = tested on: lambsquarter (Chenopodium album); assay: General postemergence herbicidal activity, CHEAL; conditions: Chenopodium album, post-emergence, 336 h, postemergence spray, visual score after 14 days, 0 = no injury, 100 = complete kill, read-out: Post-emergent Weed Control CHEAL; for pest or weed control at 140 g/ha: 140 g ai/ha; for pest or weed control at 280 g/ha: 280 g ai/ha
Experimental: (§1) Seeds or nutlets of the desired test plant species were planted in Sun Gro MetroMix® 306 planting mixture, which typically has a pH of 6.0 to 6.8 and an organic matter content of about 30 percent, in plastic pots with a surface area of 103 square centimeters. When required to ensure good germination and healthy plants, a fungicide treatment and/or other chemical or physical treatment was applied. The plants were grown for 7-21 days in a greenhouse with an approximate 15 hour photoperiod which was maintained at about 23-29° C. during the day and 22-28° C. during the night. Nutrients and water were added on a regular basis and supplemental lighting was provided with overhead metal halide 1000-Watt lamps as necessary. The plants were employed for testing when they reached the first or second true leaf stage.
(§2) A weighed amount, determined by the highest rate to be tested, of each test compound was placed in a 25 mL glass vial and was dissolved in 4 mL of a 97:3 v/v (volume/volume) mixture of acetone and dimethyl sulfoxide (DMSO) to obtain concentrated stock solutions. […] The concentrated stock solutions obtained were diluted with 20 mL of an aqueous mixture containing acetone, water, isopropyl alcohol, DMSO, Atplus 411F crop oil concentrate, and Triton® X-155 surfactant in a 48.5:39:10:1.5:1.0:0.02 v/v ratio to obtain spray solutions containing the highest application rates. Additional application rates were obtained by serial dilution of 12 mL of the high rate solution into a solution containing 2 mL of 97:3 v/v (volume/volume) mixture of acetone and dimethyl sulfoxide (DMSO) and 10 mL of an aqueous mixture containing acetone, water, isopropyl alcohol, DMSO, Atplus 411F crop oil concentrate, and Triton X-155 surfactant in a 48.5:39:10:1.5:1.0:0.02 v/v ratio to obtain 1/2X, 1/4X, 1/8X and 1/16X rates of the high rate. Compound requirements are based upon a 12 mL application volume at a rate of 187 L/ha. Formulated compounds were applied to the plant material with an overhead Mandel track sprayer equipped with a 8002E nozzles calibrated to deliver 187 L/ha over an application area of 0.503 square meters at a spray height of 18 inches (43 cm) above the average plant canopy height. Control plants were sprayed in the same manner with the solvent blank.
(§3) The treated plants and control plants were placed in a greenhouse as described above and watered by sub-irrigation to prevent wash-off of the test compounds. After 14 days, the condition of the test plants as compared with that of the untreated plants was determined visually and scored on a scale of 0 to 100 percent where 0 corresponds to no injury and 100 corresponds to complete kill.

[2] = tested on: velvetleaf (Abutilon theophrasti); assay: General postemergence herbicidal activity, ABUTH; conditions: Abutilon theophrasti, post-emergence, 336 h, postemergence spray, visual score after 14 days, 0 = no injury, 100 = complete kill, read-out: Post-emergent Weed Control ABUTH; for pest or weed control at 140 g/ha: 140 g ai/ha; for pest or weed control at 280 g/ha: 280 g ai/ha
Experimental: as §1, §2, §3

[3] = tested on: wild poinsettia (Euphorbia heterophylla); assay: General postemergence herbicidal activity, EPHHL; conditions: Euphorbia heterophylla, post-emergence, 336 h, postemergence spray, visual score after 14 days, 0 = no injury, 100 = complete kill, read-out: Post-emergent Weed Control EPHHL; for pest or weed control at 140 g/ha: 140 g ai/ha; for pest or weed control at 280 g/ha: 280 g ai/ha
Experimental: as §1, §2, §3

[4] = tested on: barnyardgrass (Echinochloa crus-galli); assay: General postemergence herbicidal activity, ECHCG; conditions: Echinochloa crus-galli, post-emergence, 336 h, postemergence spray, visual score after 14 days, 0 = no injury, 100 = complete kill, read-out: Post-emergent Weed Control ECHCG; for pest or weed control at 140 g/ha: 140 g ai/ha; for pest or weed control at 280 g/ha: 280 g ai/ha
Experimental: as §1, §2, §3

[5] = tested on: rice (Oryza sativa); assay: General postemergence herbicidal activity, ORYSA; conditions: Oryza sativa, post-emergence, 336 h, postemergence spray, visual score after 14 days, 0 = no injury, 100 = complete kill, read-out: Post-emergent Weed Control ORYSA; for plant injury at 140 g/ha: 140 g ai/ha; for plant injury at 280 g/ha: 280 g ai/ha
Experimental: as §1, §2, §3

| Compound | pest or weed control at 140 g/ha [1] [%] | pest or weed control at 140 g/ha [2] [%] | pest or weed control at 140 g/ha [3] [%] | pest or weed control at 140 g/ha [4] [%] | plant injury at 140 g/ha [5] [%] | pest or weed control at 280 g/ha [1] [%] | pest or weed control at 280 g/ha [2] [%] | pest or weed control at 280 g/ha [3] [%] | pest or weed control at 280 g/ha [4] [%] | plant injury at 280 g/ha [5] [%] | other results |
| --- | --- | --- | --- | --- | --- | --- | --- | --- | --- | --- | --- |
| C=Cc1c(N)nc(-c2ccc(Cl)c(OC)c2Cl)nc1C(=O)OC [Compound 18, 6-Amino-2-(2,4-dichloro-3-methoxyphenyl)-5-vinylpyrimidine-4-carboxylic acid methyl ester] | 100 | 100 | 40 | 90 | 0 | – | – | – | – | – | – |
| C=Cc1c(N)nc(-c2ccc(Cl)c(N(C)C)c2F)nc1C(=O)OC [Compound 19, 6-Amino-2-(4-chloro-3-dimethylamino-2-fluorophenyl)-5-vinylpyrimidine-4-carboxylic acid methyl ester] | – | – | – | – | – | 100 | 100 | 100 | 85 | 85 | – |
| C=Cc1c(N)nc(-c2ccc(Cl)c(C(C)F)c2)nc1C(=O)OC (stereo not shown) [Compound 20, 6-Amino-2-[4-chloro-3-(1-fluoroethyl)phenyl]-5-vinylpyrimidine-4-carboxylic acid methyl ester] | – | – | – | – | – | 100 | 85 | 100 | 70 | 0 | – |
| C/C=C/c1c(N)nc(-c2ccc(Cl)c(OC)c2F)nc1C(=O)OC [Compound 22, 6-Amino-2-(4-chloro-2-fluoro-3-methoxyphenyl)-5-((E)-propenyl)pyrimidine-4-carboxylic acid methyl ester] | – | – | – | – | – | – | – | – | – | – | pest or weed control at 70 g/ha ([1]; 70 g ai/ha): 95%; pest or weed control at 70 g/ha ([2]; 70 g ai/ha): 85%; pest or weed control at 70 g/ha ([3]; 70 g ai/ha): 100%; pest or weed control at 70 g/ha ([4]; 70 g ai/ha): 95%; plant injury at 70 g/ha ([5]; 70 g ai/ha): 0% |
| C#Cc1c(N)nc(-c2ccc(Cl)c(OC)c2F)nc1C(=O)OC [Compound 24, 6-Amino-2-(4-chloro-2-fluoro-3-methoxyphenyl)-5-ethynyl-pyrimidine-4-carboxylic acid methyl ester] | 85 | 80 | 85 | 70 | 0 | – | – | – | – | – | – |
| COC(=O)c1nc(-c2ccc(Cl)cc2)c(F)c(N)c1C [Compound 25, 4-Amino-6-(4-chlorophenyl)-5-fluoro-3-methylpyridine-2-carboxylic acid methyl ester] | – | – | – | – | – | 100 | 70 | 100 | 0 | 0 | – |
| C=Cc1c(C(=O)OC)nc(-c2ccc(Cl)cc2)c(F)c1N [Compound 26, 4-Amino-6-(4-chlorophenyl)-5-fluoro-3-vinylpyridine-2-carboxylic acid methyl ester] | 100 | 100 | 90 | 70 | 0 | – | – | – | – | – | – |
| COC(=O)c1nc(-c2ccc(Cl)c(OC)c2F)cc(N)c1C [Compound 27, 4-Amino-6-(4-chloro-2-fluoro-3-methoxyphenyl)-3-methyl-pyridine-2-carboxylic acid methyl ester] | – | – | – | – | – | 30 | 80 | 100 | 0 | 0 | – |
| C=Cc1c(N)cc(-c2ccc(Cl)cc2F)nc1C(=O)OC [Compound 29, 4-Amino-6-(4-chloro-2-fluorophenyl)-3-vinylpyridine-2-carboxylic acid methyl ester] | – | – | – | – | – | 85 | 85 | 75 | 0 | 10 | – |
| C=C(F)c1c(C(=O)OC)nc(-c2ccc(Cl)cc2)c(F)c1N [Compound 30, 4-Amino-6-(4-chlorophenyl)-5-fluoro-3-(1-fluorovinyl)pyridine-2-carboxylic acid methyl ester] | 100 | 100 | 90 | 0 | 0 | – | – | – | – | – | – |
| C#Cc1c(N)cc(-c2ccc(Cl)c(OC)c2F)nc1C(=O)OC [Compound 31, 4-Amino-6-(4-chloro-2-fluoro-3-methoxyphenyl)-3-ethynyl-pyridine-2-carboxylic acid methyl ester] | 95 | 95 | 100 | 80 | 0 | – | – | – | – | – | – |
| COC(=O)c1nc(-c2ccc(Cl)c(OC)c2F)nc(N)c1C(C)=O [Compound 32, 5-Acetyl-6-amino-2-(4-chloro-2-fluoro-3-methoxyphenyl)-pyrimidine-4-carboxylic acid methyl ester] | – | – | – | – | – | 70 | 70 | 100 | 0 | 0 | – |
| COC(=O)c1nc(-c2ccc(Cl)c(OC)c2F)nc(N)c1C=O [Compound 33, 6-Amino-2-(4-chloro-2-fluoro-3-methoxyphenyl)-5-formyl-pyrimidine-4-carboxylic acid methyl ester] | – | – | – | – | – | – | – | – | – | – | pest or weed control at 229 g/ha ([1]; 229 g ai/ha): 50%; pest or weed control at 229 g/ha ([2]; 229 g ai/ha): 80%; pest or weed control at 229 g/ha ([3]; 229 g ai/ha): 100%; pest or weed control at 229 g/ha ([4]; 229 g ai/ha): 0%; plant injury at 229 g/ha ([5]; 229 g ai/ha): 0% |
| COC(=O)c1nc(-c2ccc(Cl)c(OC)c2F)cc(N)c1C=O [Compound 34, 4-Amino-6-(4-chloro-2-fluoro-3-methoxyphenyl)-3-formylpyridine-2-carboxylic acid methyl ester] | – | – | – | – | – | 90 | 100 | 95 | 95 | 0 | – |
